Assay results from patent US20140303092A1 (CHIMERIX, INC., priority 2011, published 2014).

Assay: Study HDP-CDV-201: safety and tolerability (adverse events, laboratory abnormalities, discontinuations)
Type: in vivo, human (adult allogeneic HSCT recipients)
Protocol: Clinical Studies of HDP-CDV were performed and described in detail in the following Examples. For example, HDP-CDV-201 is a placebo-controlled, dose-escalating trial in HSCT CMV (R+) recipients, evaluating the ability of HDP-CDV to prevent or control CMV infection was carried out. Five cohorts were established in which participants or subjects received either placebo or the HDP-CDV orally, in doses ranging from 40 mg weekly (QW) to 200 mg twice weekly (BIW). Subjects who were post-HSCT were enrolled at the time of engraftment and randomized to HDP-CDV or placebo (3 to 1 ratio) and received blinded therapy until approximately 100 day post-transplantation. HDP-CDV doses were 40 mg QW, 100 mg QW, 200 mg QW, 200 mg BIW and 100 mg BIW. Escalation to the next dose was decided by the data monitoring committee after review of the safety data from the previous Cohort. Subjects who developed CMV disease or CMV infection requiring pre-emptive therapy with local standard of care were discontinued from blinded therapy and followed for 4 weeks. Subjects who completed treatment with blinded therapy were followed for 8 weeks post-therapy.
Data from Study HDP-CDV-201 also provided characterization of the safety and tolerability profile of HDP-CDV when administered for the prevention or control of CMV infection in high risk (R^+) post-HSCT adult subjects.
The Safety population (SAFETY) included all randomized subjects who took at least one dose of study treatment. This population was used to summarize safety outcomes based on the treatment actually received, in cases where a subject was treated contrary to the randomization schedule.
The safety and tolerability profile of HDP-CDV, including subject demographics and Baseline characteristics; the AE profile; and laboratory abnormalities of interest were analyzed in the cohorts followed in this investigation.
Subjects completing the treatment period received a full course of study medication; those completing the entire study attended visits through 8 weeks of follow up. Subjects who discontinued treatment may have done so for protocol specified reasons (e.g. development of clinically significant CMV infection requiring preemptive treatment with excluded anti-CMV medications) or for other reasons (e.g., withdrawal, adverse events, loss to follow-up). The disposition of subjects in Study HDP-CDV-201 during the double-blind, placebo-controlled treatment period (through Week 11) is listed by dosing Cohort in TABLE 23.
Adverse events were examined by severity to ensure that all safety signals were identified in this study population. Because of the frequency of events in HSCT recipients, particular attention was given to evaluation of Grade 3 […], 4 (severe), and 5 (fatal) adverse events.
Only those preferred terms for which at least one Grade 3 or higher event was experienced in any treatment group are listed. Cytomegalovirus-related AEs are excluded from this analysis.
HDP-CDV is a lipid conjugate of CDV. Because CDV is known to have adverse effects on renal function and bone marrow, decreased GFR and persistent neutropenia were identified as AEs of special interest. Key renal and hematological (TABLE 30) laboratory parameters were measured and listed below by Study HDP-CDV-201 treatment groups. TABLE 30 includes abnormal levels of serum creatinine, neutrophils, platelets, WBCs, and hemoglobin and includes data at Screening and during the treatment period.
A common metric for unit based dosing of medications is by weight (mg/kg). When the distribution of weights was examined for all subjects participating in the study, the median was 78 kg and the lower 25th percentile weight was approximately 65 kg, which translates to a cut-off of ˜3 mg/kg for a 200 mg total weekly dose. Based upon this approach, a cut-off of 3 mg/kg was used to assess the frequency of diarrhea and associated GI AEs reported for the subjects in Cohorts 3 or 4a (TABLE 40).

CCCCCCCCCCCCCCCCOCCCOP(=O)(O)COC(CO)Cn1ccc(N)nc1=O (stereo not drawn) [HDP-CDV]
TEAE GGT Increased, Frequency (100 mg QW): 1 (3.7%)
TEAE GGT Increased, Grade 2 (100 mg QW): 1 (3.7%)
TEAE GGT Increased, Grade 3 (100 mg QW): 0
TEAE GGT Increased, Grade 4 (100 mg QW): 0
TEAE GGT Increased, Grade 5 (100 mg QW): 0
TEAE Generalized oedema, Frequency (100 mg QW): 0
TEAE Generalized oedema, Grade 2 (100 mg QW): 0
TEAE Generalized oedema, Grade 3 (100 mg QW): 0
TEAE Generalized oedema, Grade 4 (100 mg QW): 0
TEAE Generalized oedema, Grade 5 (100 mg QW): 0
TEAE Hyperbilirubinaemia, Frequency (100 mg QW): 0
TEAE Hyperbilirubinaemia, Grade 2 (100 mg QW): 0
TEAE Hyperbilirubinaemia, Grade 3 (100 mg QW): 0
TEAE Hyperbilirubinaemia, Grade 4 (100 mg QW): 0
TEAE Hyperbilirubinaemia, Grade 5 (100 mg QW): 0
TEAE Hyperglycaemia, Frequency (100 mg QW): 1 (3.7%)
TEAE Hyperglycaemia, Grade 2 (100 mg QW): 0
TEAE Hyperglycaemia, Grade 3 (100 mg QW): 1 (3.7%)
TEAE Hyperglycaemia, Grade 4 (100 mg QW): 0
TEAE Hyperglycaemia, Grade 5 (100 mg QW): 0
TEAE Hyperkalemia, Frequency (100 mg QW): 1 (3.7%)
TEAE Hyperkalemia, Grade 2 (100 mg QW): 0
TEAE Hyperkalemia, Grade 3 (100 mg QW): 1 (3.7%)
TEAE Hyperkalemia, Grade 4 (100 mg QW): 0
TEAE Hyperkalemia, Grade 5 (100 mg QW): 0
TEAE Hypocalcaemia, Frequency (100 mg QW): 0
TEAE Hypocalcaemia, Grade 2 (100 mg QW): 0
TEAE Hypocalcaemia, Grade 3 (100 mg QW): 0
TEAE Hypocalcaemia, Grade 4 (100 mg QW): 0
TEAE Hypocalcaemia, Grade 5 (100 mg QW): 0
TEAE Hypokalaemia, Frequency (100 mg QW): 2 (7.4%)
TEAE Hypokalaemia, Grade 2 (100 mg QW): 0
TEAE Hypokalaemia, Grade 3 (100 mg QW): 0
TEAE Hypokalaemia, Grade 4 (100 mg QW): 0
TEAE Hypokalaemia, Grade 5 (100 mg QW): 0
TEAE Hyponatraemia, Frequency (100 mg QW): 1 (3.7%)
TEAE Hyponatraemia, Grade 2 (100 mg QW): 0
TEAE Hyponatraemia, Grade 3 (100 mg QW): 0
TEAE Hyponatraemia, Grade 4 (100 mg QW): 0
TEAE Hyponatraemia, Grade 5 (100 mg QW): 0
TEAE LFT Abnormal, Frequency (100 mg QW): 1 (3.7%)
TEAE LFT Abnormal, Grade 2 (100 mg QW): 0
TEAE LFT Abnormal, Grade 3 (100 mg QW): 0
TEAE LFT Abnormal, Grade 4 (100 mg QW): 0
TEAE LFT Abnormal, Grade 5 (100 mg QW): 0
TEAE Leukocytosis, Frequency (100 mg QW): 0
TEAE Leukocytosis, Grade 2 (100 mg QW): 0
TEAE Leukocytosis, Grade 3 (100 mg QW): 0
TEAE Leukocytosis, Grade 4 (100 mg QW): 0
TEAE Leukocytosis, Grade 5 (100 mg QW): 0
TEAE Nausea, Frequency (100 mg QW): 5 (18.5%)
TEAE Nausea, Grade 2 (100 mg QW): 1 (3.7%)
TEAE Nausea, Grade 3 (100 mg QW): 0
TEAE Nausea, Grade 4 (100 mg QW): 0
TEAE Nausea, Grade 5 (100 mg QW): 0
TEAE Neutropenia, Frequency (100 mg QW): 4 (14.8%)
TEAE Neutropenia, Grade 2 (100 mg QW): 1 (3.7%)
TEAE Neutropenia, Grade 3 (100 mg QW): 2 (7.4%)
TEAE Neutropenia, Grade 4 (100 mg QW): 1 (3.7%)
TEAE Neutropenia, Grade 5 (100 mg QW): 0
TEAE Pneumonia, Frequency (100 mg QW): 2 (7.4%)
TEAE Pneumonia, Grade 2 (100 mg QW): 0
TEAE Pneumonia, Grade 3 (100 mg QW): 1 (3.7%)
TEAE Pneumonia, Grade 4 (100 mg QW): 1 (3.7%)
TEAE Pneumonia, Grade 5 (100 mg QW): 0
TEAE Pyrexia, Frequency (100 mg QW): 1 (3.7%)
TEAE Pyrexia, Grade 2 (100 mg QW): 0
TEAE Pyrexia, Grade 3 (100 mg QW): 0
TEAE Pyrexia, Grade 4 (100 mg QW): 0
TEAE Pyrexia, Grade 5 (100 mg QW): 0
TEAE Renal Failure, Frequency (100 mg QW): 2 (7.4%)
TEAE Renal Failure, Grade 2 (100 mg QW): 2 (7.4%)
TEAE Renal Failure, Grade 3 (100 mg QW): 0
TEAE Renal Failure, Grade 4 (100 mg QW): 0
TEAE Renal Failure, Grade 5 (100 mg QW): 0
TEAE Staphylococcal Bacteremia, Frequency (100 mg QW): 1 (3.7%)
TEAE Staphylococcal Bacteremia, Grade 2 (100 mg QW): 0
TEAE Staphylococcal Bacteremia, Grade 3 (100 mg QW): 1 (3.7%)
TEAE Staphylococcal Bacteremia, Grade 4 (100 mg QW): 0
TEAE Staphylococcal Bacteremia, Grade 5 (100 mg QW): 0
TEAE Thrombocytopenia, Frequency (100 mg QW): 3 (11.1%)
TEAE Thrombocytopenia, Grade 2 (100 mg QW): 1 (3.7%)
TEAE Thrombocytopenia, Grade 3 (100 mg QW): 1 (3.7%)
TEAE Thrombocytopenia, Grade 4 (100 mg QW): 1 (3.7%)
TEAE Thrombocytopenia, Grade 5 (100 mg QW): 0
TEAE Vomiting, Frequency (100 mg QW): 6 (22.2%)
TEAE Vomiting, Grade 2 (100 mg QW): 2 (7.4%)
TEAE Vomiting, Grade 3 (100 mg QW): 0
TEAE Vomiting, Grade 4 (100 mg QW): 0
TEAE Vomiting, Grade 5 (100 mg QW): 0
Subjects Reporting Diarrhea as an AE (100 mg QW, n = 27): 8 (29.6%)
Discontinuation: Death (100 mg QW, active treatment period): 0 Subject n (%)
Discontinuation: Adverse event (100 mg QW, active treatment period through Week 11): 3 (11.1%) Subject n (%)
subjects who discontinued study medications (100 mg weekly): 33%
TEAE ALT increased, Frequency (200 mg BIW): 10 (33.3%)
TEAE ALT increased, Grade 2 (200 mg BIW): 4 (13.3%)
TEAE ALT increased, Grade 3 (200 mg BIW): 2 (6.7%)
TEAE ALT increased, Grade 4 (200 mg BIW): 0
TEAE ALT increased, Grade 5 (200 mg BIW): 0
TEAE AML, Recurrent, Frequency (200 mg BIW): 0
TEAE AML, Recurrent, Grade 2 (200 mg BIW): 0
TEAE AML, Recurrent, Grade 3 (200 mg BIW): 0
TEAE AML, Recurrent, Grade 4 (200 mg BIW): 0
TEAE AML, Recurrent, Grade 5 (200 mg BIW): 0
TEAE AST increased, Frequency (200 mg BIW): 7 (23.3%)
TEAE AST increased, Grade 2 (200 mg BIW): 3 (10.0%)
TEAE AST increased, Grade 3 (200 mg BIW): 0
TEAE AST increased, Grade 4 (200 mg BIW): 0
TEAE AST increased, Grade 5 (200 mg BIW): 0
TEAE Abdominal pain, Frequency (200 mg BIW): 11 (36.7%)
TEAE Abdominal pain, Grade 2 (200 mg BIW): 8 (26.7%)
